# Results from ChEMBL document CHEMBL1201862, “PubChem BioAssay data set” (2004).
#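 Cultured in 96-well plates, cells were exposed to test compound for 48 hours across five concentrations. GI50 is the concentration that inhibits growth by half.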 Active and inactive are the calls of the source. Cut-off read from the data, not from the text of the source: active = GI50 up to about 1.1 µM and inactive = higher.
# Columns and labels:
# Test in all cases: inhibition of tumour cell growth, NCI panel, 48 h
# SK-MEL-2 = system: SK-MEL-2
# TK-10 = system: TK-10
# OVCAR-8 = system: OVCAR-8
# NCI-H226 = system: NCI-H226
# BT-549 = system: BT-549
# Hs-578T = system: Hs-578T
# SK-MEL-5 = system: SK-MEL-5
# UACC-257 = system: UACC-257
# T47D = system: T47D
# A498 = system: A498
# HT-29 = system: HT-29
# SNB-19 = system: SNB-19
# OVCAR-4 = system: OVCAR-4
# PC-3 = system: PC-3
# MDA-MB-435 = system: MDA-MB-435
# HOP-62 = system: HOP-62
# IGROV-1 = system: IGROV-1
# SF-539 = system: SF-539
# Malme-3M = system: Malme-3M
# UO-31 = system: UO-31
# HL-60 = system: HL-60
# EKVX = system: EKVX
# OVCAR-3 = system: OVCAR-3
# COLO 205 = system: COLO 205
# 786-0 = system: 786-0
# ACHN = system: ACHN
# SK-MEL-28 = system: SK-MEL-28
# MDA-N = system: MDA-N
# OVCAR-5 = system: OVCAR-5
# HOP-92 = system: HOP-92
# MCF7 = system: MCF7
# NCI/ADR-RES = system: NCI/ADR-RES
# NCI-H23 = system: NCI-H23
# SF-268 = system: SF-268
# DU-145 = system: DU-145
# RXF 393 = system: RXF 393
# CAKI-1 = system: CAKI-1
# K562 = system: K562
# A549 = system: A549
# MDA-MB-231 = system: MDA-MB-231
# KM12 = system: KM12
# SF-295 = system: SF-295
# CCRF-CEM = system: CCRF-CEM
# HCC 2998 = system: HCC 2998
# SNB-75 = system: SNB-75
# NCI-H460 = system: NCI-H460
# LOX IMVI = system: LOX IMVI
# HCT-116 = system: HCT-116
# RPMI-8226 = system: RPMI-8226
# SN12C = system: SN12C
# MOLT-4 = system: MOLT-4
# HCT-15 = system: HCT-15
# U-251 = system: U-251
# SR = system: SR
# SW-620 = system: SW-620
# M14 = system: M14
# NCI-H522 = system: NCI-H522
smiles,measurement,setting,value
COc1cccc(NC(=O)CC(=O)N2N=C(C)C(/N=N/c3ccc(S(=O)(=O)CCOS(=O)(=O)O)cc3)C2=O)c1 (configuration not stated),GI50,SK-MEL-2,2.04 µM (inactive)
same,GI50,TK-10,5.75 µM (inactive)
same,GI50,OVCAR-8,3.18 µM (inactive)
same,GI50,NCI-H226,4.66 µM (inactive)
same,GI50,BT-549,3.35 µM (inactive)
same,GI50,Hs-578T,14 µM (inactive)
same,GI50,SK-MEL-5,3.52 µM (inactive)
same,GI50,UACC-257,8.93 µM (inactive)
same,GI50,T47D,11.4 µM (inactive)
same,GI50,A498,10.8 µM (inactive)
same,GI50,HT-29,3.76 µM (inactive)
same,GI50,SNB-19,17 µM (inactive)
same,GI50,OVCAR-4,1.58 µM (inactive)
same,GI50,PC-3,3.85 µM (inactive)
same,GI50,MDA-MB-435,2.65 µM (inactive)
same,GI50,HOP-62,13 µM (inactive)
same,GI50,IGROV-1,4.86 µM (inactive)
same,GI50,SF-539,12.5 µM (inactive)
same,GI50,Malme-3M,11.1 µM (inactive)
same,GI50,UO-31,12.1 µM (inactive)
same,GI50,HL-60,1.66 µM (inactive)
same,GI50,EKVX,17.7 µM (inactive)
same,GI50,OVCAR-3,4.21 µM (inactive)
same,GI50,COLO 205,7.1 µM (inactive)
same,GI50,786-0,2.74 µM (inactive)
same,GI50,ACHN,3.99 µM (inactive)
same,GI50,SK-MEL-28,4.09 µM (inactive)
same,GI50,MDA-N,3.69 µM (inactive)
same,GI50,OVCAR-5,29.3 µM (inactive)
same,GI50,HOP-92,2.21 µM (inactive)
same,GI50,MCF7,2.09 µM (inactive)
same,GI50,NCI/ADR-RES,4.2 µM (inactive)
same,GI50,NCI-H23,4.69 µM (inactive)
same,GI50,SF-268,7.82 µM (inactive)
same,GI50,DU-145,14.8 µM (inactive)
same,GI50,RXF 393,4.06 µM (inactive)
same,GI50,CAKI-1,2.45 µM (inactive)
same,GI50,K562,2.18 µM (inactive)
same,GI50,A549,18.9 µM (inactive)
same,GI50,MDA-MB-231,4.63 µM (inactive)
same,GI50,KM12,11.6 µM (inactive)
same,GI50,SF-295,15.3 µM (inactive)
same,GI50,CCRF-CEM,2.62 µM (inactive)
same,GI50,HCC 2998,15.5 µM (inactive)
same,GI50,SNB-75,3.27 µM (inactive)
same,GI50,NCI-H460,4.49 µM (inactive)
same,GI50,LOX IMVI,1.5 µM (inactive)
same,GI50,HCT-116,3.22 µM (inactive)
same,GI50,RPMI-8226,2.75 µM (inactive)
same,GI50,SN12C,5.05 µM (inactive)
same,GI50,MOLT-4,2.26 µM (inactive)
same,GI50,HCT-15,3.42 µM
same,GI50,U-251,4.89 µM (inactive)
same,GI50,SR,1.45 µM (inactive)
same,GI50,SW-620,2.99 µM (inactive)
same,GI50,M14,5.83 µM (inactive)
same,GI50,NCI-H522,0.796 µM (active)
